# From patent US20230391772A1, “METHODS AND COMPOSITIONS FOR TARGETED PROTEIN DEGRADATION” (Ranok Therapeutics (Hangzhou) Co. Ltd., priority 2020, published 2023)
# What was measured:
# KRAS(G12C) [1] = target: T1, KRAS(G12C) (Homo sapiens, UniProt P01116, G12C); assay: KRAS(G12C)/SOS1 homogeneous time-resolved fluorescence (HTRF) assay; parameters: purchased Cisbio 63ADK000CB16PEG; details: absence of GTP, 4° C. for 3 hr, read-out: KRAS (G12C) binding
# Summary of the method: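 Three-hour incubation at 4 °C of 3-fold compound dilutions (lowest 1.02 nM) with KRAS(G12C), SOS1 and detection reagents, GTP absent. Disruption of the KRAS(G12C)/SOS1 complex detected by time-resolved fluorescence.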
# [2] = system: MIA PaCa-2 human pancreatic carcinoma; assay: MIA PaCa-2 CCK-8 proliferation assay; format: cell-based; details: MIA PaCa-2 cells
# Summary of the method: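 Percent inhibition derived from CCK-8 optical signal, normalised between DMSO-only cells (0%) and cell-free medium containing DMSO as background. Cells: MIA PaCa-2 carrying 2 KRAS(G12C) copies; NCI-H358, NCI-H23 carrying 1 copy apiece. Concentrations spanned 1.02 nM–20 μM in threefold increments.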
# KRAS(G12C) [3] = target: T1, KRAS(G12C); assay: KRAS(G12C) Western blot protein degradation assay in LU65A cells; format: cell-based; parameters: LU65A human lung cancer cell line, which expresses KRAS(G12C); host or cells: LU65A; details: 6 hr
# Summary of the method: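 KRAS levels read by fluorescent Western blot (β-actin as reference) on BCA-normalized lysates. Exposure to a compound concentration range at 37 °C lasted 6 hr in LU65A and 48 hr in MIA PaCa-2; DC50 taken as half-maximal degradation concentration.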
compound,measurement,setting,value
"C=CC(=O)N1CCN(c2nc(OCCN3CCC(N4CCN(Cc5ccc(-n6c(O)nnc6-c6cc(C)c(O)cc6O)cc5)CC4)CC3)nc3c2CCN(c2cccc4cccc(Cl)c24)C3)C[C@@H]1CC#N [Compound 236, (S)-2-(1-acryloyl-4-(7-(8-chloronaphthalen-1-yl)-2-(2-(4-(4-(4-(3-(2,4-dihydroxy-5-methylphenyl)-5-hydroxy-4H-1,2,4-triazol-4-yl)benzyl)piperazin-1-yl)piperidin-1-yl)ethoxy)-5,6,7,8-tetrahydropyrido[3,4-d]pyrimidin-4-yl)piperazin-2-yl)acetonitrile]",IC50,KRAS(G12C) [1],< 100 nM
same,EC50,"[2]; Homo sapiens, MIA PaCa-2, 72 h",> 1000 nM
same,DC50,KRAS(G12C) [3],> 1000 nM
"C=CC(=O)N1CCN(c2nc(OC[C@@H]3CC[C@H](CN4CCN(C(=O)C5CCN(Cc6ccc(-n7c(O)nnc7-c7cc(C)c(O)cc7O)cc6)CC5)CC4)N3C)nc3c2CCN(c2cccc4ccccc24)C3)C[C@@H]1CC#N [Compound 256, 2-[(2S)-4-(2-{[(2S,5R)-5-({4-[1-({4-[3-(2,4-dihydroxy-5-methylphenyl)-5-hydroxy-1,2,4-triazol-4-yl]phenyl}methyl)piperidine-4-carbonyl]piperazin-1-yl}methyl)-1-methylpyrrolidin-2-yl]methoxy}-7-(naphthalen-1-yl)-5H,6H,8H-pyrido[3,4-d]pyrimidin-4-yl)-1-(prop-2-enoyl)piperazin-2-yl]acetonitrile]",IC50,KRAS(G12C) [1],< 100 nM
same,EC50,"[2]; Homo sapiens, MIA PaCa-2, 72 h",> 1000 nM
same,DC50,KRAS(G12C) [3],> 1000 nM
"C=CC(=O)N1CCN(c2nc(OC[C@@H]3C[C@H](N4CCN(Cc5ccc(-n6c(O)nnc6-c6cc(C(C)C)c(O)cc6O)cc5)CC4)CN3C)nc3c2CCN(c2cccc4cccc(C)c24)C3)C[C@@H]1CC#N [Compound 279, 2-[(2S)-4-(2-{[(2S,4S)-4-[4-({4-[3-(2,4-dihydroxy-5-isopropylphenyl)-5-hydroxy-1,2,4-triazol-4-yl]phenyl}methyl)piperazin-1-yl]-1-methylpyrrolidin-2-yl]methox-y}-7-(8-methylnaphthalen-1-yl)-5H,6H,8H-pyrido[3,4-d]pyrimidin-4-yl)-1-(prop-2-enoyl)piperazin-2-yl]acetonitrile]",IC50,KRAS(G12C) [1],< 100 nM
same,EC50,"[2]; Homo sapiens, MIA PaCa-2, 72 h",100 to 1000 nM
same,DC50,KRAS(G12C) [3],100 to 1000 nM
"C=CC(=O)N1CCN(c2nc(OCCN3CCC(C(=O)N4CCN(Cc5ccc(-n6c(C(=O)NCC(F)(F)F)nnc6-c6cc(C)c(O)cc6O)cc5)CC4)CC3)nc3c2CCN(c2cccc4cccc(Cl)c24)C3)C[C@@H]1CC#N [Compound 251, (S)-4-(4-((4-(1-(2-((4-(4-acryloyl-3-(cyanomethyl)piperazin-1-yl)-7-(8-chloronaphthalen-1-yl)-5,6,7,8-tetrahydropyrido[3,4-d]pyrimidin-2-yl)oxy)ethyl)piperidine-4-carbonyl)piperazin-1-yl)methyl)phenyl)-5-(2,4-dihydroxy-5-methylphenyl)-N-(2,2,2-trifluoroethyl)-4H-1,2,4-triazole-3-carboxamide]",IC50,KRAS(G12C) [1],< 100 nM
same,EC50,[2]; 72 hr,100 to 1000 nM
same,DC50,KRAS(G12C) [3],> 1000 nM
"C=CC(=O)N1CCN(c2nc(OC[C@@H]3C[C@H](N4CCN(C(=O)C5CCN(Cc6ccc(-n7c(O)nnc7-c7cc(C(C)C)c(O)cc7O)cc6)CC5)CC4)CN3C)nc3c2CCN(c2cccc4cccc(Cl)c24)C3)C[C@@H]1CC#N [Compound 264, 2-[(2S)-4-[7-(8-chloronaphthalen-1-yl)-2-{[(2S,4S)-4-{4-[1-({4-[3-(2,4-dihydroxy-5-isopropylphenyl)-5-hydroxy-1,2,4-triazol-4-yl]phenyl}methyl)piperidine-4-carbonyl]piperazin-1-yl}-1-methylpyrrolidin-2-yl]methoxy}-5H,6H,8H-pyrido[3,4-d]pyrimidin-4-yl]-1-(prop-2-enoyl)piperazin-2-yl]acetonitrile]",IC50,KRAS(G12C) [1],< 100 nM
same,EC50,"[2]; Homo sapiens, MIA PaCa-2, 72 h",100 to 1000 nM
same,DC50,KRAS(G12C) [3],100 to 1000 nM
"C=CC(=O)N1CCN(c2nc(OC[C@@H]3C[C@H](N4CCN(C(=O)C5CCN(Cc6ccc(-n7c(C(=O)NCC(F)(F)F)nnc7-c7cc(C(C)C)c(O)cc7O)cc6)CC5)CC4)CN3C)nc3c2CCN(c2cccc4cccc(Cl)c24)C3)C[C@@H]1CC#N [Compound 261, 4-{4-[(4-{4-[(3S,5S)-5-({[7-(8-chloronaphthalen-1-yl)-4-[(3S)-3-(cyanomethyl)-4-(prop-2-enoyl)piperazin-1-yl]-5H,6H,8H-pyrido[3,4-d]pyrimidin-2-yl]oxy}methyl)-1-methylpyrrolidin-3-yl]piperazine-1-carbonyl}piperidin-1-yl)methyl]phenyl}-5-(2,4-dihydroxy-5-isopropylphenyl)-N-(2,2,2-trifluoroethyl)-1,2,4-triazole-3-carboxamide]",IC50,KRAS(G12C) [1],< 100 nM
same,EC50,"[2]; Homo sapiens, MIA PaCa-2, 72 h",< 100 nM
same,DC50,KRAS(G12C) [3],100 to 1000 nM
"C=CC(=O)N1CCN(c2nc(OC[C@@H]3C[C@H](N4CCN(Cc5ccc(-n6c(O)nnc6-c6cc(C(C)C)c(O)cc6O)cc5)CC4)CN3C)nc3c2CCN(c2cccc4ccc(F)c(Cl)c24)C3)C[C@@H]1CC#N [Compound 277, 2-[(2S)-4-[7-(8-chloro-7-fluoronaphthalen-1-yl)-2-{[(2S,4S)-4-[4-({4-[3-(2,4-dihydroxy-5-isopropylphenyl)-5-hydroxy-1,2,4-triazol-4-yl]phenyl}methyl)piperazin-1-yl]-1-methylpyrrolidin-2-yl]methoxy}-5H,6H,8H-pyrido[3,4-d]pyrimidin-4-yl]-1-(prop-2-enoyl)piperazin-2-yl]acetonitrile]",IC50,KRAS(G12C) [1],< 100 nM
same,EC50,"[2]; Homo sapiens, MIA PaCa-2, 72 h",100 to 1000 nM
same,DC50,KRAS(G12C) [3],> 1000 nM
"C=CC(=O)N1CCN(c2nc(OC[C@@H]3C[C@H](N4CCN(CC5CCN(Cc6ccc(-n7c(C(=O)NCC)nnc7-c7cc(C(C)C)c(O)cc7O)cc6)CC5)CC4)CN3C)nc3c2CCN(c2cccc4cccc(Cl)c24)C3)C[C@@H]1CC#N [Compound 276, 4-(4-{[4-({4-[(3S,5S)-5-({[7-(8-chloronaphthalen-1-yl)-4-[(3S)-3-(cyanomethyl)-4-(prop-2-enoyl)piperazin-1-yl]-5H,6H,8H-pyrido[3,4-d]pyrimidin-2-yl]oxy}methyl)-1-methylpyrrolidin-3-yl]piperazin-1-yl}methyl)piperidin-1-yl]methyl}phenyl)-5-(2,4-dihydroxy-5-isopropylphenyl)-N-ethyl-1,2,4-triazole-3-carboxamide]",IC50,KRAS(G12C) [1],< 100 nM
same,EC50,"[2]; Homo sapiens, MIA PaCa-2, 72 h",< 100 nM
same,DC50,KRAS(G12C) [3],> 1000 nM
"C=CC(=O)N1CCN(c2nc(OC[C@@H]3C[C@H](N4CCC5(CCN(Cc6ccc(-n7c(O)nnc7-c7cc(C(C)C)c(O)cc7O)cc6)CC5)CC4)CN3C)nc3c2CCN(c2cccc4ccccc24)C3)C[C@@H]1CC#N [Compound 248, 2-[(2S)-4-(2-{[(2S,4S)-4-[9-({4-[3-(2,4-dihydroxy-5-isopropylphenyl)-5-hydroxy-1,2,4-triazol-4-yl]phenyl}methyl)-3,9-diazaspiro[5.5]undecan-3-yl]-1-methylpyrrolidin-2-yl]methoxy}-7-(naphthalen-1-yl)-5H,6H,8H-pyrido[3,4-d]pyrimidin-4-yl)-1-(prop-2-enoyl)piperazin-2-yl]acetonitrile]",IC50,KRAS(G12C) [1],100 to 1000 nM
same,EC50,"[2]; Homo sapiens, MIA PaCa-2, 72 h",100 to 1000 nM
same,DC50,KRAS(G12C) [3],100 to 1000 nM
"C=CC(=O)N1CCN(c2nc(OC[C@@H]3C[C@H](N4CCC(C(=O)N5CCN(Cc6ccc(-n7c(O)nnc7-c7cc(C(C)C)c(O)cc7O)cc6)CC5)CC4)CN3C)nc3c2CCN(c2cccc4ccccc24)C3)C[C@@H]1CC#N [Compound 246, 2-[(2S)-4-(2-{[(2S,4S)-4-{4-[4-({4-[3-(2,4-dihydroxy-5-isopropylphenyl)-5-hydro-xy-1,2,4-triazol-4-yl]phenyl}methyl)piperazine-1-carbonyl]piperidin-1-yl}-1-methylpyrrolidin-2-yl]methoxy}-7-(naphthalen-1-yl)-5H,6H,8H-pyrido[3,4-d]pyrimidin-4-yl)-1-(prop-2-enoyl)piperazin-2-yl]acetonitrile]",IC50,KRAS(G12C) [1],< 100 nM
same,EC50,"[2]; Homo sapiens, MIA PaCa-2, 72 h",100 to 1000 nM
same,DC50,KRAS(G12C) [3],> 1000 nM
"(S)-4-(4-((4-(1-(2-((4-(4-acryloyl-3-(cyanomethyl)piperazin-1-yl)-7-(8-chloronaphthalen-1-yl)-5,6,7,8-tetrahydropyrido[3,4-d]pyrimidin-2-yl)oxy)ethyl)piperidine-4-carbonyl)piperazin-1-yl)methyl)phenyl)-5-(2,4-dihydroxy-5-methylphenyl)-N-(2,2,2-trifluoroethyl)-4H-1,2,4-triazole-3-carboxamide [Compound 257]",IC50,KRAS(G12C) [1],< 100 nM
same,EC50,[2]; 72 hr,100 to 1000 nM
same,DC50,KRAS(G12C) [3],100 to 1000 nM
"C=CC(=O)N1CCN(c2nc(OC[C@@H]3C[C@H](N4CCC(C(=O)N5CCN(Cc6ccc(-n7c(O)nnc7-c7cc(C)c(O)cc7O)cc6)CC5)CC4)CN3C)nc3c2CCN(c2cccc4ccccc24)C3)C[C@@H]1CC#N [Compound 247, 2-[(2S)-4-(2-{[(2S,4S)-4-{4-[4-({4-[3-(2,4-dihydroxy-5-methylphenyl)-5-hydroxy-1,2,4-triazol-4-yl]phenyl}methyl)piperazine-1-carbonyl]piperidin-1-yl}-1-methylpyrrolidin-2-yl]methoxy}-7-(naphthalen-1-yl)-5H,6H,8H-pyrido[3,4-d]pyrimidin-4-yl)-1-(prop-2-enoyl)piperazin-2-yl]acetonitrile]",IC50,KRAS(G12C) [1],< 100 nM
same,EC50,"[2]; Homo sapiens, MIA PaCa-2, 72 h",> 1000 nM
same,DC50,KRAS(G12C) [3],> 1000 nM
